Assay results reported in PMC10714400, “Antimicrobial Peptide–Peptoid Hybrids with and without Membrane Disruption” (ACS Infectious Diseases, 2023).
Read-outs that look alike come from different tables or passages of the source.

Experiments:
A. baumannii ATCC19606 = tested on: A. baumannii ATCC19606
Summary of the method: (§1)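 MTT added (20–30 min, room temperature); MIC read by eye as lowest concentration inhibiting visible growth (yellow). Polymyxin B positive control from 16 μg/mL.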

E. cloacae = tested on: E. cloacae
Summary of the method: as §1

E. coli W3110 = tested on: E. coli W3110
Summary of the method: as §1

K. pneumoniae NCTC418 = tested on: K. pneumoniae NCTC418
Summary of the method: as §1

K. pneumoniae OXA-48 = tested on: K. pneumoniae OXA-48
Summary of the method: as §1

P. aeruginosa PAO1 = tested on: P. aeruginosa PAO1
Summary of the method: as §1

PA14 2P4 (pmrB) = details: CSV; […] MH at pH 8.5
Summary of the method: as §1

[1] = diluted MH ([…] MH, pH 8.5) per Table 1 footnote b, 16–20 h at 37 °C
[2] = full MH, pH 7.4, 16–20 h at 37 °C

H-KKLLKLLKLLL-NH2 [ln65, reference compound]
MIC A. baumannii ATCC19606, […] MH at pH 7.4 (A. baumannii ATCC19606; CSV, […] MH at pH 7.4): 4 ug/mL | MIC A. baumannii ATCC19606, […] MH at pH 8.5 (A. baumannii ATCC19606; CSV, […] MH at pH 8.5): 2 ug/mL | MIC A. baumannii ATCC19606, full MH at pH 7.4 (A. baumannii ATCC19606; CSV, full MH at pH 7.4): 3 ug/mL | MIC A. baumannii ATCC19606, full MH at pH 8.5 (A. baumannii ATCC19606; CSV, full MH at pH 8.5): 8 ug/mL | MIC A. baumannii ATCC19606 […] 7.4 (A. baumannii ATCC19606; Table S2, […] MH, pH 7.4): 4 µg/mL | MIC A. baumannii ATCC19606 […] 8.5 (A. baumannii ATCC19606; Table S2, […] MH, pH 8.5): 2 µg/mL | MIC A. baumannii ATCC19606 Full MH 7.4 (A. baumannii ATCC19606; Table S2, full MH, pH 7.4): 2 to 4 µg/mL | MIC A. baumannii ATCC19606 Full MH 8.5 (A. baumannii ATCC19606; Table S2, full MH, pH 8.5): 8 µg/mL | MIC A. baumannii ATCC19606 […] (A. baumannii ATCC19606; [1]): 4 µg/mL | MIC A. baumannii ATCC19606 Full (A. baumannii ATCC19606; [2]): 2 to 4 µg/mL | MIC E. cloacae, […] MH at pH 8.5 (E. cloacae; CSV, […] MH at pH 8.5): 4 ug/mL | MIC E. cloacae, full MH at pH 7.4 (E. cloacae; CSV, full MH at pH 7.4): 2 ug/mL | MIC E. cloacae (E. cloacae; MH pH 7.4, 16–20 h at 37 °C): 2 µg/mL | MIC E. cloacae (E. cloacae; Table S3, […] MH at pH 8.5): 4 µg/mL | MIC E. coli W3110, […] MH at pH 7.4 (E. coli W3110; CSV, […] MH at pH 7.4): 2 ug/mL | MIC E. coli W3110, […] MH at pH 8.5 (E. coli W3110; CSV, […] MH at pH 8.5): 2 ug/mL | MIC E. coli W3110, full MH at pH 7.4 (E. coli W3110; CSV, full MH at pH 7.4): 4 ug/mL | MIC E. coli W3110 […] 7.4 (E. coli W3110; Table S2, […] MH, pH 7.4): 2 µg/mL | MIC E. coli W3110 […] 8.5 (E. coli W3110; Table S2, […] MH, pH 8.5): 2 µg/mL | MIC E. coli W3110 Full MH 7.4 (E. coli W3110; Table S2, full MH, pH 7.4): 4 µg/mL | MIC E. coli W3110 Full MH 8.5 (E. coli W3110; Table S2, full MH, pH 8.5): 8 µg/mL | MIC K. pneumoniae NCTC418, […] MH at pH 7.4 (K. pneumoniae NCTC418; CSV, […] MH at pH 7.4): 3 ug/mL | MIC K. pneumoniae NCTC418, […] MH at pH 8.5 (K. pneumoniae NCTC418; CSV, […] MH at pH 8.5): 2 ug/mL | MIC K. pneumoniae NCTC418, full MH at pH 7.4 (K. pneumoniae NCTC418; CSV, full MH at pH 7.4): 4 ug/mL | MIC K. pneumoniae NCTC418, full MH at pH 8.5 (K. pneumoniae NCTC418; CSV, full MH at pH 8.5): 8 ug/mL | MIC K. pneumoniae NCTC418 […] 7.4 (K. pneumoniae NCTC418; Table S2, […] MH, pH 7.4): 2 to 4 µg/mL | MIC K. pneumoniae NCTC418 […] 8.5 (K. pneumoniae NCTC418; Table S2, […] MH, pH 8.5): 2 µg/mL | MIC K. pneumoniae NCTC418 Full MH 7.4 (K. pneumoniae NCTC418; Table S2, full MH, pH 7.4): 4 µg/mL | MIC K. pneumoniae NCTC418 Full MH 8.5 (K. pneumoniae NCTC418; Table S2, full MH, pH 8.5): 8 µg/mL | MIC K. pneumoniae NCTC418 […] (K. pneumoniae NCTC418; [1]): 2 to 4 µg/mL | MIC K. pneumoniae NCTC418 Full (K. pneumoniae NCTC418; [2]): 4 µg/mL | MIC K. pneumoniae OXA-48, […] MH at pH 8.5 (K. pneumoniae OXA-48; CSV, […] MH at pH 8.5): 4 ug/mL | MIC K. pneumoniae OXA-48, full MH at pH 7.4 (K. pneumoniae OXA-48; CSV, full MH at pH 7.4): 2 ug/mL | MIC K. pneumoniae OXA-48 (K. pneumoniae OXA-48; MH pH 7.4, 16–20 h at 37 °C): 2 µg/mL | MIC K. pneumoniae OXA-48 (K. pneumoniae OXA-48; Table S3, […] MH at pH 8.5): 4 µg/mL | MIC P. aeruginosa PAO1, […] MH at pH 7.4 (P. aeruginosa PAO1; CSV, […] MH at pH 7.4): 4 ug/mL | MIC P. aeruginosa PAO1, […] MH at pH 8.5 (P. aeruginosa PAO1; CSV, […] MH at pH 8.5): 4 ug/mL | MIC P. aeruginosa PAO1, full MH at pH 7.4 (P. aeruginosa PAO1; CSV, full MH at pH 7.4): 3 ug/mL | MIC P. aeruginosa PAO1, full MH at pH 8.5 (P. aeruginosa PAO1; CSV, full MH at pH 8.5): 16 ug/mL | MIC P. aeruginosa PAO1 […] 7.4 (P. aeruginosa PAO1; Table S2, […] MH, pH 7.4): 4 µg/mL | MIC P. aeruginosa PAO1 […] 8.5 (P. aeruginosa PAO1; Table S2, […] MH, pH 8.5): 4 µg/mL | MIC P. aeruginosa PAO1 Full MH 7.4 (P. aeruginosa PAO1; Table S2, full MH, pH 7.4): 2 to 4 µg/mL | MIC P. aeruginosa PAO1 Full MH 8.5 (P. aeruginosa PAO1; Table S2, full MH, pH 8.5): 16 µg/mL | MIC P. aeruginosa PAO1 […] (P. aeruginosa PAO1; [1]): 4 µg/mL | MIC P. aeruginosa PAO1 Full (P. aeruginosa PAO1; [2]): 2 to 4 µg/mL | MIC P. aeruginosa PA14 2P4, […] MH at pH 8.5 (PA14 2P4 (pmrB)): 3 ug/mL
